Data reported in patent US8097640B2, “Prophylactic or therapeutic agent for diabetic maculopathy” (Sanwa Kagaku Kenkyusho Co., Ltd., priority 2004, dated 2012).
“And” between values parts separate entries of the source, which are not always exact repeats. Equal values may be shown once.

Key:
[1] = tested on: edema in a retinal visual cell layer of diabetic rats; assay: Rat Test 1: edema in retinal visual cell layer after intraocular ischemia/reperfusion in STZ diabetic rats; format: in vivo, Sprague Dawley rats; conditions: 32 mg/kg oral once a day, 2 weeks plus 2 days reperfusion
Procedure: (§1) Diabetes mellitus was induced in male Sprague Dawley rats (8-week-old) weighing about 250 g by injecting streptozotocin (STZ manufactured by Sigma) intravenously into their tail at the dose of 60 mg/kg. One week after the treatment with STZ, serum glucose was measured, and rats with at least 300 mg/dl glucose were then used in the experiment as diabetic rats. The set groups were the following 3 groups, and after 2 weeks after the treatment with STZ, 5% gum arabic solution or SNK-860 solution was orally administered once a day. • (1) Normal control group (5 rats): Given 5% gum arabic solution in a ratio of 5 ml/kg. • (2) Diabetic control group (7 rats): Given 5% gum arabic solution in a ratio of 5 ml/kg. • (3) Diabetic group given 32 mg/kg SNK-860 (4 rats): Given a suspension of SNK-860 (32 mg/5 ml) in 5% gum arabic solution in a ratio of 5 ml/kg.
(§2) After administration for 2 weeks, intraocular ischemia was caused by the treatment described below. After the treatment was finished, the animals were maintained as usual for 2 days, and thereafter, the eyeballs were excised and histologically evaluated. Administration of the pharmacological agent was also conducted for a period (2 days) of reperfusion after ischemic treatment. […]
(§3) In each of the resulting retinal images, the thickness of the visual cell layer was measured. […]

[2] = tested on: nuclei in the inner retinal layer (ganglion cell layer) of diabetic rats; assay: Rat Test 1: loss of nuclei from ganglion cells after ischemia/reperfusion in STZ diabetic rats; format: in vivo, Sprague Dawley rats; conditions: 32 mg/kg oral once a day, 4 rats
Procedure: as §1, §2, §3

[3] = tested on: edema in a retinal visual cell layer of diabetic rats; assay: Rat Test 2: edema in retinal visual cell layer after intraocular ischemia/reperfusion in STZ diabetic rats; format: in vivo
Procedure: The test was carried out in accordance with Efficacy Pharmacological Test Example 1. The set groups were the following 4 groups, and from 2 weeks after the treatment with STZ, 5% gum arabic solution or SNK-860 solution was orally administered once a day. • (1) Normal control group (10 rats): Given 5% gum arabic solution in a ratio of 5 ml/kg. • (2) Diabetic control group (9 rats): Given 5% gum arabic solution in a ratio of 5 ml/kg. • (3) Diabetic group given 2 mg/kg SNK-860 (10 rats): Given a suspension of SNK-860 (2 mg/5 ml) in 5% gum arabic solution in a ratio of 5 ml/kg. • (4) Diabetic group given 32 mg/kg SNK-860 (9 rats): Given a suspension of SNK-860 (32 mg/5 ml) in 5% gum arabic solution in a ratio of 5 ml/kg. Retinal ischemia produced by increasing the intraocular pressure was in accordance with Efficacy Pharmaceutical Test Example 1. Histological evaluation was also in accordance with Efficacy Pharmaceutical Test Example 1.

[4] = tested on: edema in the macular central fovea of diabetic monkeys; assay: Monkey Test: thickness and volume of macular central fovea (OCT) after ischemia/reperfusion in STZ diabetic monkeys; format: in vivo, Macaca fascicularis
Procedure: Diabetes mellitus was induced in male monkeys (Macaca fascicularis) (3-year-old) weighing about 2.1 to 2.4 kg by intravenously injecting STZ into their foreleg vein at the dose of 80 mg/kg. Two days after the treatment with STZ, blood glucose level was measured, and monkeys with at least 200 mg/dl glucose were then used in the experiment as diabetic monkeys. Insulin was administered subcutaneously once or twice per day into monkeys showing a blood glucose level of 300 mg/dl. The set groups were the following 3 groups, and from 2 weeks after the treatment with STZ, 5% gum arabic solution or SNK-860 solution was orally administered once a day. • (1) Normal control group (4 monkeys): Given 5% gum arabic solution in a ratio of 5 ml/kg. • (2) Diabetic control group (6 monkeys): Given 5% gum arabic solution in a ratio of 5 ml/kg. • (3) Diabetic group given 32 mg/kg SNK-860 (4 monkeys): Given a suspension of SNK-860 (32 mg/5 ml) in 5% gum arabic solution in a ratio of 5 ml/kg.
After administration for 2 weeks, intraocular ischemic treatment was carried out as described below, and after the treatment was finished, the animals were maintained as usual for 7 days. Before the ischemic treatment and 7 days after treatment, the thickness and volume of the macular central fovea (in the diameter range of 1 mm from the center of the macula lutea) were measured by an OCT scanner (Stratus OCT, Carl Zeiss). Administration of the pharmacological agent was also conducted for the period (7 days) of reperfusion after the ischemic treatment.
Retinal ischemia produced by increasing intraocular pressure was in accordance with Efficacy Pharmaceutical Test Example 1. However, the size of the needle used was 25 G×½ (Terumo). After a mydriatic (Mydrin P manufactured by Santen Pharmaceutical) was dropped onto the right eye, the monkey was anesthetized by intramuscularly administering ketaral (Sankyo Life Tech). Subsequently, a local anesthetic (Benoxyl eye drop 0.4%) was dropped onto the eye, and the monkey was prevented from blinking with an eyelid speculum. Anesthesia with ketaral was additionally carried out when necessary.
The thickness and volume of the macular central fovea were measured in the following manner. After a mydriatic (Mydrin P) was dropped onto the right eye of the monkey to dilate the pupil of the eye sufficiently, the monkey was anesthetized by intramuscularly administering Ketaral. Thereafter, the monkey was allowed to sit on a monkey chair and the head was fixed. […] On the basis of the resulting cross-sectional macular image, the thickness and volume of the macular central fovea were analyzed.

[5] = tested on: patients with diabetic macular edema; assay: Clinical Results: macula lutea thickness (OCT), corrected visual acuity and safety in patients with diabetic macular edema; format: in vivo, humans
Procedure: Among patients with diabetic maculopathy, 10 patients with diabetic macular edema having a retinal thickening or a hard exudates in a posterior pole of the retina were subjects. SNK-860 was orally administered in a dose of 30 mg (2 tablets each containing 15 mg SNK-860) once a day before breakfast for 8 weeks. During this test period, simultaneous use of eparlestat, intravitreal injection and sub-Tenon injection of an adrenal cortical hormone, and photocoagulation and vitrectomy were prohibited. Basic therapy of diabetes mellitus was carried out so as to give good blood glucose control throughout the test period.
Evaluation was carried out in terms of the thickness of the macular central fovea (in the diameter range of 1 mm from the center of macula lutea) and the thickness at the center of the central fovea measured by optical coherence tomography (OCT, Carl Zeiss), as well as corrected visual acuity (Log MAR).
Log MAR (Log Minimum Angle of Resolution) is one kind of logarithmic visual acuity, which is visual acuity expressed in logarithmic minimum angle of resolution. Decimal visual acuity 1.0 used frequently in Japan is 0.0 in terms of Log MAR, and decimal visual acuity 0.1 is 1.0 in Log MAR. A log MAR visual acuity of 0.1 to 0.5 corresponds to a decimal visual acuity of 0.8 to 0.32.

[6] = 32 mg/kg oral once a day for 2 weeks, before ischemia
[7] = 32 mg/kg oral once a day, 7 days after ischemia
[8] = 30 mg oral once a day for 8 weeks, 12 eyes, mean ± standard deviation
[9] = 30 mg oral once a day for 8 weeks, out of 12 eyes
[10] = baseline before administration, 12 eyes in 10 cases, mean ± standard deviation

## NC(=O)[C@@H]1C[C@]2(NC(=O)NC2=O)c2cc(F)ccc2O1 [SNK-860, (2S,4S)-6-Fluoro-2′,5′-dioxospiro[chroman-4,4′-imidazolidine]-2-carboxamide]
[1]
  edema / thickness of the visual cell layer (ischemic/re-perfused eye vs untreated eye): no edema was observed
[2]
  loss of nuclei from ganglion cells: loss of nuclei was not observed in all 4 rats
[3]; 2 mg/kg oral once a day
  inhibitory action on edema in visual cell layer: no inhibitory action on edema was observed
[3]; 32 mg/kg oral once a day
  inhibitory action on edema in visual cell layer: an evident inhibitory action on edema was observed
[4]; 32 mg/kg oral once a day
  formation of edema in macular central fovea: formation of edema or its change was not observed
[4]; [6]
  Average macula lutea thickness, Before ischemia: 157 ± 6 μm
  Average macula lutea volume, Before ischemia: 0.123 ± 0.005 mm^3
[4]; [7]
  Average macula lutea thickness, 7 days after ischemia: 158 ± 2 μm
  Average macula lutea volume, 7 days after ischemia: 0.124 ± 0.001 mm^3
[5]; [8]
  Corrected visual acuity, Week 8: 0.24 Log MAR and 0.24 ± 0.20 Log MAR
  Macula lutea thickness, Center of central fovea, Week 8: 298.7 μm and 298.7 ± 90.6 μm
  Macula lutea thickness, Central fovea (diameter: 1 mm), Week 8: 300.4 μm and 300.4 ± 74.4 μm
[5]; [9]
  Corrected visual acuity (eye number), 1-stage deterioration: 1 eyes
  Corrected visual acuity (eye number), 1-stage improvement: 2 eyes
  Corrected visual acuity (eye number), 2-stage improvement: 3 eyes
  Corrected visual acuity (eye number), Unchanged: 6 eyes
[5]; 30 mg oral once a day for 8 weeks, patients
  side effects (safety): no particularly problematic side effects were recognized
[5]; [10]
  Macula lutea thickness, Center of central fovea, When initiated: 323.1 μm and 323.1 ± 111.4 μm
  Macula lutea thickness, Central fovea (diameter: 1 mm), When initiated: 324.3 μm and 324.3 ± 87.7 μm
[5]; baseline before administration, 12 eyes, mean ± standard deviation
  Corrected visual acuity, When initiated: 0.30 Log MAR and 0.30 ± 0.22 Log MAR
